Measured values from ChEMBL document CHEMBL1201862, “PubChem BioAssay data set” (2004).
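Method: 48-hour compound exposure of cells in 96-well plates, five concentrations, linear interpolation of endpoints. GI50 is the concentration that inhibits growth by half.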 Activity calls are given as the source filed them. Cut-off read from the data, not from the text of the source: active = GI50 up to about 1.1 µM and inactive = higher.

Legend:
Assay in all cases: inhibition of tumour cell growth, NCI panel, 48 h
786-0 = tested on: 786-0
A498 = tested on: A498
A549 = tested on: A549
ACHN = tested on: ACHN
BT-549 = tested on: BT-549
CAKI-1 = tested on: CAKI-1
CCRF-CEM = tested on: CCRF-CEM
COLO 205 = tested on: COLO 205
EKVX = tested on: EKVX
HCT-116 = tested on: HCT-116
HCT-15 = tested on: HCT-15
HL-60 = tested on: HL-60
HOP-62 = tested on: HOP-62
HOP-92 = tested on: HOP-92
HT-29 = tested on: HT-29
Hs-578T = tested on: Hs-578T
IGROV-1 = tested on: IGROV-1
K562 = tested on: K562
KM12 = tested on: KM12
LOX IMVI = tested on: LOX IMVI
M14 = tested on: M14
MCF7 = tested on: MCF7
MDA-MB-231 = tested on: MDA-MB-231
MDA-MB-435 = tested on: MDA-MB-435
MDA-N = tested on: MDA-N
MOLT-4 = tested on: MOLT-4
Malme-3M = tested on: Malme-3M
NCI-H226 = tested on: NCI-H226
NCI-H23 = tested on: NCI-H23
NCI-H460 = tested on: NCI-H460
NCI-H522 = tested on: NCI-H522
NCI/ADR-RES = tested on: NCI/ADR-RES
OVCAR-3 = tested on: OVCAR-3
OVCAR-4 = tested on: OVCAR-4
OVCAR-5 = tested on: OVCAR-5
OVCAR-8 = tested on: OVCAR-8
PC-3 = tested on: PC-3
RPMI-8226 = tested on: RPMI-8226
RXF 393 = tested on: RXF 393
SF-268 = tested on: SF-268
SF-295 = tested on: SF-295
SF-539 = tested on: SF-539
SK-MEL-28 = tested on: SK-MEL-28
SK-MEL-2 = tested on: SK-MEL-2
SK-MEL-5 = tested on: SK-MEL-5
SK-OV-3 = tested on: SK-OV-3
SNB-19 = tested on: SNB-19
SNB-75 = tested on: SNB-75
SR = tested on: SR
SW-620 = tested on: SW-620
T47D = tested on: T47D
TK-10 = tested on: TK-10
U-251 = tested on: U-251
UACC-257 = tested on: UACC-257
UACC-62 = tested on: UACC-62
UO-31 = tested on: UO-31
DU-145 = tested on: DU-145
HCC 2998 = tested on: HCC 2998
SN12C = tested on: SN12C

Compound: CC(CCc1ccccc1)NCC(O)n1c(/N=N/N(C)C)nc2c1c(=O)n(C)c(=O)n2C (stereo unspecified)
- GI50 (786-0): > 100 µM (inactive)
- GI50 (A498): > 100 µM (inactive)
- GI50 (A549): > 100 µM (inactive)
- GI50 (ACHN): > 100 µM (inactive)
- GI50 (BT-549): > 100 µM (inactive)
- GI50 (CAKI-1): 88.7 µM (inactive)
- GI50 (CCRF-CEM): > 100 µM (inactive)
- GI50 (COLO 205): > 100 µM (inactive)
- GI50 (EKVX): > 100 µM (inactive)
- GI50 (HCT-116): > 100 µM (inactive)
- GI50 (HCT-15): > 100 µM
- GI50 (HL-60): 66.7 µM (inactive)
- GI50 (HOP-62): > 100 µM (inactive)
- GI50 (HOP-92): > 100 µM (inactive)
- GI50 (HT-29): > 100 µM (inactive)
- GI50 (Hs-578T): > 100 µM (inactive)
- GI50 (IGROV-1): > 100 µM (inactive)
- GI50 (K562): > 100 µM (inactive)
- GI50 (KM12): > 100 µM (inactive)
- GI50 (LOX IMVI): > 100 µM (inactive)
- GI50 (M14): > 100 µM (inactive)
- GI50 (MCF7): > 100 µM (inactive)
- GI50 (MDA-MB-231): > 100 µM (inactive)
- GI50 (MDA-MB-435): > 100 µM (inactive)
- GI50 (MDA-N): > 100 µM (inactive)
- GI50 (MOLT-4): > 100 µM (inactive)
- GI50 (Malme-3M): > 100 µM (inactive)
- GI50 (NCI-H226): > 100 µM (inactive)
- GI50 (NCI-H23): > 100 µM (inactive)
- GI50 (NCI-H460): 41.1 µM (inactive)
- GI50 (NCI-H522): > 100 µM (inactive)
- GI50 (NCI/ADR-RES): > 100 µM (inactive)
- GI50 (OVCAR-3): > 100 µM (inactive)
- GI50 (OVCAR-4): > 100 µM (inactive)
- GI50 (OVCAR-5): > 100 µM (inactive)
- GI50 (OVCAR-8): > 100 µM (inactive)
- GI50 (PC-3): > 100 µM (inactive)
- GI50 (RPMI-8226): > 100 µM (inactive)
- GI50 (RXF 393): > 100 µM (inactive)
- GI50 (SF-268): > 100 µM (inactive)
- GI50 (SF-295): > 100 µM (inactive)
- GI50 (SF-539): > 100 µM (inactive)
- GI50 (SK-MEL-28): > 100 µM (inactive)
- GI50 (SK-MEL-2): > 100 µM (inactive)
- GI50 (SK-MEL-5): 78.7 µM (inactive)
- GI50 (SK-OV-3): > 100 µM (inactive)
- GI50 (SNB-19): > 100 µM (inactive)
- GI50 (SNB-75): 9.62 µM (inactive)
- GI50 (SR): 43.2 µM (inactive)
- GI50 (SW-620): > 100 µM (inactive)
- GI50 (T47D): > 100 µM (inactive)
- GI50 (TK-10): > 100 µM (inactive)
- GI50 (U-251): > 100 µM (inactive)
- GI50 (UACC-257): > 100 µM (inactive)
- GI50 (UACC-62): > 100 µM (inactive)
- GI50 (UO-31): > 100 µM (inactive)

Compound: O=C(Nn1c(-c2ccccc2)nc2ccccc2c1=O)c1ccc(CS)cc1
- GI50 (786-0): 24.4 µM (inactive)
- GI50 (A498): 24.5 µM (inactive)
- GI50 (A549): 36.7 µM (inactive)
- GI50 (ACHN): 54.5 µM (inactive)
- GI50 (BT-549): 22.4 µM (inactive)
- GI50 (CCRF-CEM): 5.89 µM (inactive)
- GI50 (COLO 205): 60.3 µM (inactive)
- GI50 (DU-145): 39.4 µM (inactive)
- GI50 (EKVX): 36.7 µM (inactive)
- GI50 (HCC 2998): > 100 µM (inactive)
- GI50 (HCT-116): 39.4 µM (inactive)
- GI50 (HL-60): 16 µM (inactive)
- GI50 (HOP-62): > 100 µM (inactive)
- GI50 (HOP-92): 34.9 µM (inactive)
- GI50 (HT-29): 53 µM (inactive)
- GI50 (Hs-578T): 35.6 µM (inactive)
- GI50 (IGROV-1): 26.1 µM (inactive)
- GI50 (K562): 38.2 µM (inactive)
- GI50 (KM12): 81.1 µM (inactive)
- GI50 (LOX IMVI): 1.67 µM (inactive)
- GI50 (M14): 47.6 µM (inactive)
- GI50 (MCF7): 29.8 µM (inactive)
- GI50 (MDA-MB-231): 37 µM (inactive)
- GI50 (MDA-MB-435): 41.8 µM (inactive)
- GI50 (MDA-N): 61.2 µM (inactive)
- GI50 (MOLT-4): 16.6 µM (inactive)
- GI50 (Malme-3M): 36.6 µM (inactive)
- GI50 (NCI-H226): 37.7 µM (inactive)
- GI50 (NCI-H23): 49.9 µM (inactive)
- GI50 (NCI-H460): > 100 µM (inactive)
- GI50 (NCI-H522): 52.2 µM (inactive)
- GI50 (OVCAR-3): 67.6 µM (inactive)
- GI50 (OVCAR-4): 98.4 µM (inactive)
- GI50 (OVCAR-5): > 100 µM (inactive)
- GI50 (OVCAR-8): 57.1 µM (inactive)
- GI50 (PC-3): 20.2 µM (inactive)
- GI50 (RPMI-8226): 33.2 µM (inactive)
- GI50 (RXF 393): 44.7 µM (inactive)
- GI50 (SF-268): 26.2 µM (inactive)
- GI50 (SF-295): > 100 µM (inactive)
- GI50 (SF-539): 24.5 µM (inactive)
- GI50 (SK-MEL-28): 69.8 µM (inactive)
- GI50 (SK-MEL-5): 11.8 µM (inactive)
- GI50 (SK-OV-3): 82.8 µM (inactive)
- GI50 (SN12C): 36.6 µM (inactive)
- GI50 (SNB-19): > 100 µM (inactive)
- GI50 (SNB-75): 39.7 µM (inactive)
- GI50 (SR): 19.5 µM (inactive)
- GI50 (SW-620): 31.1 µM (inactive)
- GI50 (T47D): > 100 µM (inactive)
- GI50 (TK-10): > 100 µM (inactive)
- GI50 (U-251): 27.6 µM (inactive)
- GI50 (UACC-257): > 100 µM (inactive)
- GI50 (UACC-62): 27.7 µM (inactive)
- GI50 (UO-31): 46.3 µM (inactive)
